Results as given in patent US20250064762A1, “A SUBSTITUTED AROMATIC DICARBONIC ACID AMIDE AS AN INHIBITOR OF THE FERROPTOSIS SUPPRESSOR PROTEIN-1 (FSP1)” (JULIUS-MAXIMILIANS-UNIVERSITÄT WÜRZBURG, priority 2021, published 2025).

How the values were obtained:
[1] = system: HT1080 cells; experiment: FIN56-induced cell death with or without DGAT1/2 inhibitors; type: cell-based, human; conditions: CPBA versus CPBA+iDGAT1/2
Procedure: Cells were seeded onto 96-well plates (5,000 cells per well), and treated with serial dilutions of ferroptosis-inducing compounds (erastin, BSO, RSL3, FIN56) or cytotoxic drugs (staurosporine, nocodazole, tunicamycin, paclitaxel, etoposide, menadione, rotenone, FCCP, carboplatin) in the absence or presence of CPBA or iFSP1 (100 μM or 10 μM, respectively; unless stated otherwise) or the DMSO solvent control. Ferroptotic cell death was evaluated by incubating in the absence or presence of liproxstatin-1 (100 nM), ferrostatin-1 (200 nM), or deferoxamine (100 μM). Cell viability was assessed after 16 h using AquaBluer as an indicator of viable cells according to the manufacturer's recommendations (MultiTarget Pharmaceuticals, LLC). Fluorescence (excitation, 540 nm; emission, 590 nm) was analyzed on a Clariostar microplater reader.
The diglyceride acyltransferase isoforms 1 and 2 (DGAT1, DGAT2) are required to catalyze the formation of triglycerides from diacylglycerol and acyl-CoA.

[2] = system: HT1080 GPX4-knockout (KO) cells; experiment: Viability of GPX4-knockout cells after α-tocopherol wash-out; type: cell-based, human; conditions: 100 μM CPBA; 48-120 h after α-tocopherol wash-out
Procedure: The following HT1080 fibrosarcoma cell lines were generated using CRISPR/Cas9 technology, as previously described (Doll et al., 2019): HT1080 GPX4-knockout (KO) cells (maintained in the presence of 100 μM α-tocopherol); HT1080 GPX4 knockout cells overexpressing FSP1 (GPX4-KO/FSP1-OE); GPX4-KO cells overexpressing FSP1 and re-expressing GPX4 (GPX4-KO/FSP1-OE/GPX4-OE); HT1080 FSP1-WT or FSP1-KO cells; and HT1080 FSP1-KO cells reconstituted with either FSP1-WT or FSP1-G2A. LOX-IMVI (BRAF V600E heterozygous human melanoma cells) expressing either the Venus mock vector or FSP1-Venus (Doll et al., 2019) were grown in RPMI-1640 supplemented with 10% FCS, 2 mM L-glutamine and Pen/Strep.
In order to study the effect of CPBA-induced sensitization to ferroptosis in the absence of the ferroptosis suppressor GPX4, we generated HT1080 GPX4-knockout (KO) cells using CRISPR/Cas9 technology as described above. Lack of GPX4 expression in GPX4-KO cell lines was confirmed by Western Blot as described above (see FIG. 11). […] Cell viability was assessed at 48 h, 72 h, 96 h and 120 h using AquaBluer.

[3] = biological target: T1, murine PGP (Mus musculus, UniProt Q8CHP8); experiment: In vitro phosphoglycolate phosphatase assay (malachite green); type: biochemical
T1 construct: made in house
T1 sequence (Q8CHP8 1-321): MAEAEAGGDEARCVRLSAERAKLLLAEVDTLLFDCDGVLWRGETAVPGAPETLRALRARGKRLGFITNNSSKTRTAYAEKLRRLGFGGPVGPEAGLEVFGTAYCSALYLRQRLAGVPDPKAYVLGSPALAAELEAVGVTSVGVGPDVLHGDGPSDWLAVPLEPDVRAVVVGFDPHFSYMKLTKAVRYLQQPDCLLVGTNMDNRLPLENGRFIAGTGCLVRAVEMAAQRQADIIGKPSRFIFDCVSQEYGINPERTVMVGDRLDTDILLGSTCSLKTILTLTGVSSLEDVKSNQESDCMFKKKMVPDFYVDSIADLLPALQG
Procedure: Recombinant, purified murine phosphoglycolate phosphatase (PGP) was expressed and purified as described (Seifried et al., 2014). Experiments were performed in TNM30 (30 mM triethanolamine, 30 mM NaCl, 5 mM MgCl2; PH 7.5), supplemented with 0.01% (v/v) Triton X-100 and 5 mM dithiothreitol (DTT). Assays were conducted at room temperature in a final reaction volume of 50 μL in 96-well microtiter plates. PGP (5.7 nM) was pre-incubated with the compounds or the DMSO solvent control for 10 min, and enzyme reactions were started by the addition of the substrate phosphoglycolate (PG, 200 μM). Buffer without enzyme served as a background control. Inorganic phosphate release from PG was detected with malachite green solution (Biomol Green; Enzo Life Sciences). The absorbance at 620 nm (A620) was measured on an Envision 2104 multilabel microtiter plate reader (Perkin Elmer Life Sciences). Released phosphate was determined by converting the values to nmol Pi with a phosphate standard curve. Data were analyzed with GraphPad Prism version 7.0.5. For IC50 determinations, loginhibitor versus response was calculated for a Hill slope of −1.
Free inorganic phosphate released by PG dephosphorylation was quantified using malachite green.

O=C(Nc1ccccc1C(=O)O)c1ccc(Oc2ccc(C(=O)Nc3ccccc3C(=O)O)cc2)cc1 [CPBA, 2-[[4-[4-[(2-carboxyphenyl)carbamoyl]phenoxy]benzoyl]amino]-benzoic acid]
influence of lipid droplets on sensitization to FIN56-induced cell death [1]: the absence or presence of lipid droplets did not influence the CPBA-mediated sensitization of HT1080 cells to FIN56-induced cell death | ferroptosis in the absence of GPX4 [2]: accelerates ferroptosis in the absence of GPX4 | inhibition of PGP [3]: inhibitor of PGP
